Assay results from ChEMBL document CHEMBL2029343, “Stereoselective synthesis of alpinoid-C and its analogues and study of their cytotoxic activity against cancer cell lines” (Bioorg Med Chem Lett, 2012).

How the values were obtained:
Type in all cases: functional, cell-based
HepG2 = assay: Antiproliferative activity against human HepG2 cells after 48 hrs by MTT assay; conditions: HepG2, 48 h
U-937 = assay: Antiproliferative activity against human U937 cells after 48 hrs by MTT assay; conditions: U-937, 48 h
B16-F10 = assay: Antiproliferative activity against mouse B16F10 cells after 48 hrs by MTT assay; conditions: B16-F10, 48 h
COLO 205 = assay: Antiproliferative activity against human COLO205 cells after 48 hrs by MTT assay; conditions: COLO 205, 48 h
THP-1 = assay: Antiproliferative activity against human THP1 cells after 48 hrs by MTT assay; conditions: THP-1, 48 h

| IC50 (HepG2) [µM] | IC50 (U-937) [µM] | IC50 (B16-F10) [µM] | IC50 (COLO 205) [µM] | IC50 (THP-1) [µM] | Structure (SMILES) |
| --- | --- | --- | --- | --- | --- |
| 32.6 | 22.3 | 38.1 | 11.1 | 7.53 | COc1ccc(CCC(=O)/C=C/[C@H](O)Cc2ccccc2)cc1OC |
| 185 | 139 | 130 | 195 | 120 | O=C(/C=C/[C@H](O)Cc1ccccc1)CCc1ccccc1 |
| 355 | 168 | 337 | 498 | 195 | O=C(/C=C/[C@@H](O)Cc1ccccc1)CCc1ccccc1 |
| 53.5 | 31.9 | 96.9 | 7.21 | 32.3 | COc1ccc(CCC(=O)/C=C/[C@@H](O)Cc2ccccc2)cc1OC |
| 4.76 | – | 18.7 | 0.43 | – | COc1cc([C@@H]2c3cc4c(cc3[C@@H](O[C@@H]3O[C@@H]5CO[C@@H](C)O[C@H]5[C@H](O)[C@H]3O)[C@H]3COC(=O)[C@H]23)OCO4)cc(OC)c1O [ETOPOSIDE] |
